Data set [1] addresses T1, Pyruvate kinase PKLR (Homo sapiens, UniProt P30613). Description: Activation of PKR (unknown origin).
Data set [2] addresses T1, Pyruvate kinase PKLR. Description: Activation of PKR (unknown origin) by differential scanning fluorimetry analysis.
The nature of data set [3]: Genotoxicity in Salmonella typhimurium. Format: toxicity. The following applies: salmonella enterica subsp. enterica serovar typhimurium.
A short description of data set [4]: Permeability of the compound across apical to basolateral side. Format: ADME. The conditions noted are these: not told; read-out: permeability.
Data set [5] can be described thus: Solubility of the compound. Format: physicochemical.
Data set [6] in a line: AUC in rat at 10 mg/kg, po. Format: ADME, organism-based. The conditions noted are these: in vivo.
Data set [7] is described as follows: Half life in rat at 10 mg/kg, po. Format: ADME, organism-based. The following applies: in vivo.
Data set [8] has as its target Voltage-gated inwardly rectifying potassium channel KCNH2 (Homo sapiens, UniProt Q12809). Description: Inhibition of human ERG at >50 uM. It is filed as toxicity.
Another data set has as its target T2, aromatase (Homo sapiens, UniProt P11511).
T2 sequence (P11511 whole entry): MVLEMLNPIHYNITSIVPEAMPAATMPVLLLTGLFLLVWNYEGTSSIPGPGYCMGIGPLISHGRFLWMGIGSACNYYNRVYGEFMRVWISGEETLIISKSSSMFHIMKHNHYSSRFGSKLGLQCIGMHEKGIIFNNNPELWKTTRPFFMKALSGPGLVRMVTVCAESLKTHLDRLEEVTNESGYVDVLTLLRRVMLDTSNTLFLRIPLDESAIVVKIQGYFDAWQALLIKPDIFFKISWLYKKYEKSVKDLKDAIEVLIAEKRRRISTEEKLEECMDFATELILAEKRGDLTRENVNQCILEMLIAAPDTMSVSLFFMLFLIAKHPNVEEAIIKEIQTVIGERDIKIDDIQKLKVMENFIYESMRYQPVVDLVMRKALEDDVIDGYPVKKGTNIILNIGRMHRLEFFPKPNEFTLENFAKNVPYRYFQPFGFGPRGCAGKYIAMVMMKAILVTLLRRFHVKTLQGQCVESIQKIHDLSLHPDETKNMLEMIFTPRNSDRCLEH
The experiment in a line: Inhibition of aromatase (unknown origin) at 10 uM relative to control.

≈ marks a conversion by molar mass, not a printed value.

T1 sequence (P30613 whole entry): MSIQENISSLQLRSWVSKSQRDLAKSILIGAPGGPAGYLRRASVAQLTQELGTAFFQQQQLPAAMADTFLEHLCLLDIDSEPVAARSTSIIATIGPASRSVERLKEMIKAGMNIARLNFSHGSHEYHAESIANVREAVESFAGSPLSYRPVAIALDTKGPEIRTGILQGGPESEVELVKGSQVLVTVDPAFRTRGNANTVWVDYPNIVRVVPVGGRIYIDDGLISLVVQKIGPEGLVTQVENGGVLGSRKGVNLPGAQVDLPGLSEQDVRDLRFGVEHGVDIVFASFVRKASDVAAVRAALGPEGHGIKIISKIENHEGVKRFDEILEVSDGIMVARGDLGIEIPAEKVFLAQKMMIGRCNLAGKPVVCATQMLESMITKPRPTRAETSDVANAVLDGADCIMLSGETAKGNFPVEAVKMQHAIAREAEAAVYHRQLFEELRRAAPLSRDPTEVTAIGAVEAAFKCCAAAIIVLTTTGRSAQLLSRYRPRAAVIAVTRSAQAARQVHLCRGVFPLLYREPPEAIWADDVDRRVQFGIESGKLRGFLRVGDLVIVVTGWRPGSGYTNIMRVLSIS
Chain of Voltage-gated inwardly rectifying potassium channel KCNH2 (Q12809 whole entry): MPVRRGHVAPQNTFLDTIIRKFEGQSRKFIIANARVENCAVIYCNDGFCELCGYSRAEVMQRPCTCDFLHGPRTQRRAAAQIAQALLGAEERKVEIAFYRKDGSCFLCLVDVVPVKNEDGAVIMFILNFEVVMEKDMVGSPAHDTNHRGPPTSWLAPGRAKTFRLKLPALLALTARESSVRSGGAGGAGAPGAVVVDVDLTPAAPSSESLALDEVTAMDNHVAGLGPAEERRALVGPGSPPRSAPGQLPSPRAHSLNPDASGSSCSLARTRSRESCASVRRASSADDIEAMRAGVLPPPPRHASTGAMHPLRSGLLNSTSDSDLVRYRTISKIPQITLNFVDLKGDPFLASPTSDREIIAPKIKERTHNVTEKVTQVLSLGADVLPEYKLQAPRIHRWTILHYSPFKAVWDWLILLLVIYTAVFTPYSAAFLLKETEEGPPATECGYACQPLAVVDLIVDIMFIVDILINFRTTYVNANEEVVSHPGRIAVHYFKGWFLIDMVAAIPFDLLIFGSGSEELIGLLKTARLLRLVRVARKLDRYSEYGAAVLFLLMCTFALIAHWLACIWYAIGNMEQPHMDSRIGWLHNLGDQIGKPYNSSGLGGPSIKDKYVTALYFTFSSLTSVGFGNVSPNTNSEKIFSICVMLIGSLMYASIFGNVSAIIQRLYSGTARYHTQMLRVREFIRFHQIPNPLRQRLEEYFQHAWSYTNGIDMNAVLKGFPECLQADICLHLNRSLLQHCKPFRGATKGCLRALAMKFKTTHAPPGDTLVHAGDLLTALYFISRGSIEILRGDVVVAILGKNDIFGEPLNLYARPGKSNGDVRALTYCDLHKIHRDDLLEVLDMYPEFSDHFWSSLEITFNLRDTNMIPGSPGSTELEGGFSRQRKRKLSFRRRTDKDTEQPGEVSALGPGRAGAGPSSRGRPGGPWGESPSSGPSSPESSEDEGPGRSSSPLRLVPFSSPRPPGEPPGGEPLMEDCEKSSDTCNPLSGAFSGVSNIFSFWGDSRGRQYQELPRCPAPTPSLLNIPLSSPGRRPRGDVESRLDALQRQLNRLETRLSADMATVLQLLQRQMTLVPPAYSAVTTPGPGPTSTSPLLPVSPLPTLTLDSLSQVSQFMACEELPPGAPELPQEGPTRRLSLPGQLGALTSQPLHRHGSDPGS

For orientation: EC50 means the midpoint of the concentration-response curve. In the case of `Cc1ccc(-n2nnnc2CNC(=O)Nc2ccccc2)cc1C`, a half-maximal response at Pyruvate kinase PKLR [1] (EC50) required 100 µM.
`Cc1cnccc1CNC(=O)c1cc(COc2ccc3c(c2)OCO3)[nH]n1` had an EC50 at Pyruvate kinase PKLR [2] of 58 µM.
At Pyruvate kinase PKLR [1], `O=C(NCc1nnnn1-c1ccc(Cl)cc1)Nc1cccs1` displayed a concentration for a half-maximal effect (EC50) of 100 µM.
As usually defined, the solubility is how much of the substance goes into solution per volume. As usually defined, the AUC is the area under the concentration-time curve, a measure of exposure. For orientation: half-life means how long it takes for the measured level to halve. The low end stands for rapid decline, the high end for slow decline. As usually defined, the inhibition is the change of the read-out against control, counted positive when it falls. Low readings indicate little suppression, high ones strong suppression. For the molecule `Cc1nc(CNC(=O)NCc2ncnn2-c2ccc3cccnc3c2)n(-c2ccc(Cl)c(F)c2)n1`, the Activity entry in data set [3] is on record as “Non-Toxic”. The Papp A→B in data set [4] worked out at 1.2 ×10⁻⁶ cm/s. The molecule further returned a solubility in [5] of 59 µM (≈ 29 µg/mL). Moreover, in [6], the AUC came to 2.9 µM·h. For the same molecule, the half-life in data set [7] is 2.4 h. Also, in data set [8], the “inhibition (INH)” value is on record as “Not Active”. Testing at 10 µM against aromatase gave an inhibition of 17%.
`O=C(NCc1nnnn1-c1ccc(F)c(F)c1)Nc1cccs1` displayed a concentration for a half-maximal effect (EC50) at Pyruvate kinase PKLR [1] of 100 µM.
Still for that read-out and setting: next, `Cc1ccc(-n2nnnc2CNC(=O)NC2CCCCC2)cc1C`: 100 µM.
